“Also recorded” adds a separate entry of the source. The source made the active and inactive calls. How the calls were made is not given here.
Test system: CCRIS mutagenicity, Ames/micronucleus/aberration tests
Assay: CCRIS mutagenicity studies
[1] = Test System: AMES SALMONELLA TYPHIMURIUM, Strain/Indicator: TA98, Metabolic Activation: HAMSTER, LIVER, S-9, AROCLOR 1254 (10%), Method: PREINCUBATION
[2] = Test System: AMES SALMONELLA TYPHIMURIUM, Strain/Indicator: TA98, Metabolic Activation: NONE, Method: PREINCUBATION
[3] = Test System: AMES SALMONELLA TYPHIMURIUM, Strain/Indicator: TA98, Metabolic Activation: RAT, LIVER, S-9, AROCLOR 1254 (10%), Method: PREINCUBATION
[4] = Test System: AMES SALMONELLA TYPHIMURIUM, Strain/Indicator: TA100, Metabolic Activation: HAMSTER, LIVER, S-9, AROCLOR 1254 (10%), Method: PREINCUBATION
[5] = Test System: AMES SALMONELLA TYPHIMURIUM, Strain/Indicator: TA100, Metabolic Activation: NONE, Method: PREINCUBATION
[6] = Test System: AMES SALMONELLA TYPHIMURIUM, Strain/Indicator: TA100, Metabolic Activation: RAT, LIVER, S-9, AROCLOR 1254 (10%), Method: PREINCUBATION
[7] = Test System: AMES SALMONELLA TYPHIMURIUM, Strain/Indicator: TA1535, Metabolic Activation: HAMSTER, LIVER, S-9, AROCLOR 1254 (10%), Method: PREINCUBATION
[8] = Test System: AMES SALMONELLA TYPHIMURIUM, Strain/Indicator: TA1535, Metabolic Activation: NONE, Method: PREINCUBATION
[9] = Test System: AMES SALMONELLA TYPHIMURIUM, Strain/Indicator: TA1535, Metabolic Activation: RAT, LIVER, S-9, AROCLOR 1254 (10%), Method: PREINCUBATION
[10] = Test System: AMES SALMONELLA TYPHIMURIUM, Strain/Indicator: TA98, Metabolic Activation: HAMSTER, LIVER, S-9, AROCLOR 1254, Method: PREINCUBATION
[11] = Test System: AMES SALMONELLA TYPHIMURIUM, Strain/Indicator: TA98, Metabolic Activation: RAT, LIVER, S-9, AROCLOR 1254, Method: PREINCUBATION
[12] = Test System: AMES SALMONELLA TYPHIMURIUM, Strain/Indicator: TA100, Metabolic Activation: HAMSTER, LIVER, S-9, AROCLOR 1254, Method: PREINCUBATION
[13] = Test System: AMES SALMONELLA TYPHIMURIUM, Strain/Indicator: TA100, Metabolic Activation: RAT, LIVER, S-9, AROCLOR 1254, Method: PREINCUBATION
[14] = Test System: AMES SALMONELLA TYPHIMURIUM, Strain/Indicator: TA1535, Metabolic Activation: HAMSTER, LIVER, S-9, AROCLOR 1254, Method: PREINCUBATION
[15] = Test System: AMES SALMONELLA TYPHIMURIUM, Strain/Indicator: TA1535, Metabolic Activation: RAT, LIVER, S-9, AROCLOR 1254, Method: PREINCUBATION
[16] = Test System: AMES SALMONELLA TYPHIMURIUM, Strain/Indicator: TA1537, Metabolic Activation: HAMSTER, LIVER, S-9, AROCLOR 1254, Method: PREINCUBATION
[17] = Test System: AMES SALMONELLA TYPHIMURIUM, Strain/Indicator: TA1537, Metabolic Activation: NONE, Method: PREINCUBATION
[18] = Test System: AMES SALMONELLA TYPHIMURIUM, Strain/Indicator: TA1537, Metabolic Activation: RAT, LIVER, S-9, AROCLOR 1254, Method: PREINCUBATION

| Structure (SMILES) | mutagenic call [1] | mutagenic call [2] | mutagenic call [3] | mutagenic call [4] | mutagenic call [5] | mutagenic call [6] | mutagenic call [7] | mutagenic call [8] | mutagenic call [9] | mutagenic call [10] | mutagenic call [11] | mutagenic call [12] | mutagenic call [13] | mutagenic call [14] | mutagenic call [15] | mutagenic call [16] | mutagenic call [17] | mutagenic call [18] | further results |
| --- | --- | --- | --- | --- | --- | --- | --- | --- | --- | --- | --- | --- | --- | --- | --- | --- | --- | --- | --- |
| O=[N+]([O-])c1ccc(Nc2ccc(O)cc2)c([N+](=O)[O-])c1 | active; positive | active; positive | active; positive | active; positive | active; positive | active; positive | inactive; negative | inactive; negative | inactive; negative |  |  |  |  |  |  |  |  |  | mutagenic call (Test System: AMES SALMONELLA TYPHIMURIUM, Strain/Indicator: TA97, Metabolic Activation: HAMSTER, LIVER, S-9, AROCLOR 1254 (10%), Method: PREINCUBATION): active; positive; mutagenic call (Test System: AMES SALMONELLA TYPHIMURIUM, Strain/Indicator: TA97, Metabolic Activation: NONE, Method: PREINCUBATION): inactive; negative; mutagenic call (Test System: AMES SALMONELLA TYPHIMURIUM, Strain/Indicator: TA97, Metabolic Activation: RAT, LIVER, S-9, AROCLOR 1254 (10%), Method: PREINCUBATION): inactive; negative |
| Cc1ccc(-c2nc3ccccc3o2)cc1 |  |  |  |  |  |  |  |  |  |  |  |  |  |  |  |  |  |  | mutagenic call (Test System: AMES SALMONELLA TYPHIMURIUM, Strain/Indicator: TA98, Metabolic Activation: NONE, Method: STANDARD PLATE): inactive; negative; mutagenic call (Test System: AMES SALMONELLA TYPHIMURIUM, Strain/Indicator: TA98, Metabolic Activation: S-9, Method: STANDARD PLATE): inactive; negative |
| NS(=O)(=O)c1cc(C(=O)O)c(NCc2ccco2)cc1Cl | inactive; negative | inactive; negative | inactive; negative | inactive; negative | inactive; negative | inactive; negative | inactive; negative | inactive; negative | inactive; negative | inactive; negative | inactive; negative | inactive; negative | inactive; negative | inactive; negative | inactive; negative | inactive; negative | inactive; negative | inactive; negative | mutagenic call (End Point: IN VITRO CHROMOSOMAL ABERRATIONS, Test System: CHO CELLS, Metabolic Activation: NONE): active; positive; precipitation occurred at 3750 and 5000 ug/ml; also recorded: active; positive; precipitation occurred at 2513 ug/ml; mutagenic call (End Point: IN VITRO CHROMOSOMAL ABERRATIONS, Test System: CHO CELLS, Metabolic Activation: RAT, LIVER, S-9, AROCLOR 1254): active; positive; precipitation occurred at all doses; mutagenic call (Test System: AMES SALMONELLA TYPHIMURIUM, Strain/Indicator: TA1537, Metabolic Activation: HAMSTER, LIVER, S-9, AROCLOR 1254 (10%), Method: PREINCUBATION): inactive; negative; mutagenic call (Test System: AMES SALMONELLA TYPHIMURIUM, Strain/Indicator: TA1537, Metabolic Activation: RAT, LIVER, S-9, AROCLOR 1254 (10%), Method: PREINCUBATION): inactive; negative; mutagenic call (Test System: MOUSE LYMPHOMA, Strain/Indicator: L5178Y (TK+/TK-), Metabolic Activation: NONE, Method: SUSPENSION/PLATE): inactive; negative; mutagenic call (Test System: MOUSE LYMPHOMA, Strain/Indicator: L5178Y (TK+/TK-), Metabolic Activation: RAT, LIVER, S-9, AROCLOR 1254, Method: SUSPENSION/PLATE): active; positive |
| Clc1ccc(Cl)c(Cl)c1 |  | inactive; negative |  |  | inactive; negative |  |  | inactive; negative |  | inactive; negative | inactive; negative | inactive; negative | inactive; negative | inactive; negative | inactive; negative | inactive; negative | inactive; negative | inactive; negative |  |
| ClC1=C(Cl)[C@]2(Cl)C3C(Cl)C(Cl)CC3[C@@]1(Cl)C2(Cl)Cl (stereo partly specified) |  |  |  |  |  |  |  |  |  |  |  |  |  |  |  |  |  |  | mutagenic call (Test System: AMES SALMONELLA TYPHIMURIUM, Strain/Indicator: TA100, Metabolic Activation: NONE, Method: DESICCATOR): active; positive |
